Data taken from US6750228B1, “Aromatic sulfone hydroxamic acid metalloprotease inhibitor” (priority 1997, dated 2004).
pIC50: −log10 of the molar value. Counter-ions that a name gives are not always drawn. Like-named read-outs stand apart in the source and are kept apart here.

Experiments:
Experiment in all cases: biochemical
[1] = molecular target: T1, MMP-13 (Homo sapiens, UniProt P45452); conditions: for pIC50: read-out: MMP-13 IC50
T1 construct: made in house; host or cells: baculovirus / insect cells
Outline: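 Assay buffer 100 mM Tris-HCl, 100 mM NaCl, 10 mM CaCl2, pH 7.5. Activated MMP + inhibitor, 5 min RT; then methoxycoumarin peptide substrate, 4 μM final. Readout fluorescence; IC50 calculated.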

[2] = molecular target: T2, MMP-1 (Homo sapiens, UniProt P03956); conditions: read-out: MMP-1 IC50
T2 construct: made in house; host or cells: transfected HT-1080 cells (provided by Dr. Harold Welgus, Washington University)
T2 sequence (P03956 100-469): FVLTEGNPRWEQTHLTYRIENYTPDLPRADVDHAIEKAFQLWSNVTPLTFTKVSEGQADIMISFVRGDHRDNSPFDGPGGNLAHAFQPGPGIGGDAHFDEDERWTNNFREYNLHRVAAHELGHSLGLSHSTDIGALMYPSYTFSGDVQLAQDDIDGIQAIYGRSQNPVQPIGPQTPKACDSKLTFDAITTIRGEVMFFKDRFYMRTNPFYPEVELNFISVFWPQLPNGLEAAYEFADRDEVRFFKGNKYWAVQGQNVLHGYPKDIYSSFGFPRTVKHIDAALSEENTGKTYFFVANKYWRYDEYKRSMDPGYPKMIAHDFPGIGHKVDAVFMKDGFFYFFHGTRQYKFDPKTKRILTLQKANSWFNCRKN
Outline: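 APMA- or trypsin-activated enzymes were preincubated with inhibitor for 5 min at room temperature, then the fluorogenic substrate MCA-Pro-Leu-Gly-Leu-Dpa-Ala-Arg-NH2 was added to a final 4 μM.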

[3] = molecular target: T3, MMP-2 (Homo sapiens, UniProt P08253); conditions: for pIC50: read-out: MMP-2 IC50
T3 construct: made in house; provided by Dr. Gregory Goldberg, Washington University
T3 sequence (P08253 110-660): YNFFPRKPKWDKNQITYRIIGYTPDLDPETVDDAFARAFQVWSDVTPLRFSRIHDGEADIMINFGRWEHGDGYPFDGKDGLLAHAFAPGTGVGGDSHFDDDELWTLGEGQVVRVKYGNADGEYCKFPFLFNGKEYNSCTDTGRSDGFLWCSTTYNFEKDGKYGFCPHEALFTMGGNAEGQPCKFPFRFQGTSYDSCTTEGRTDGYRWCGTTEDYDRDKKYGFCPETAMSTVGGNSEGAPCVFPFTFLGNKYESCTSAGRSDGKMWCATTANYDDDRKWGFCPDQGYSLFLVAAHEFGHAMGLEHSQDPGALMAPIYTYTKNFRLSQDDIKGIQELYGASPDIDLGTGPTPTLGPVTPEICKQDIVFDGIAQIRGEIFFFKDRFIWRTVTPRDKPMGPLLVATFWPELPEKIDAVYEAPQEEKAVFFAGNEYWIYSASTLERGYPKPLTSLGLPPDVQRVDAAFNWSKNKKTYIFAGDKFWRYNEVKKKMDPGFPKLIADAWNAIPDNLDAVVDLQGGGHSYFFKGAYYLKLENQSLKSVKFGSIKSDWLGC
Outline: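 APMA- or trypsin-activated human MMPs (MMP-1 from transfected HT-1080 cells, MMP-2 from transfected cells) preincubated with inhibitor in 1% DMSO at room temperature, then 4 μM MCA-Pro-Leu-Gly-Leu-Dpa-Ala-Arg-NH2 added in Tris/NaCl/CaCl2 buffer pH 7.5. IC50 from fluorescence reduction versus inhibitor concentration.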

[4] = recombinant human MMP-13, MCA peptide substrate 4 μM, pH 7.5, room temperature
[5] = recombinant human MMP-1, MCA peptide substrate 4 μM, pH 7.5, room temperature
[6] = recombinant human MMP-2, MCA peptide substrate 4 μM, pH 7.5, room temperature

**Q.** How did the pIC50 [1, 4] turn out when `COCCNCC(=O)N1CCC(C(=O)NO)(S(=O)(=O)c2ccc(N3CCC(C(=O)N4CC(C)CC(C)C4)CC3)cc2)CC1` (stereo not drawn) [Example 309] was run?
**A.** 7.31

**Q.** What about the pIC50 [2, 5] of the same compound?
**A.** < 5.00

**Q.** What about the pIC50 [3, 6] of the same compound?
**A.** < 5.00

**Q.** With `COCCN1CCC(C(=O)NO)(S(=O)(=O)c2ccc(N3CCC(OCc4ccc(F)c(C(F)(F)F)c4)CC3)cc2)CC1` [Example 446] as the compound, how does the pIC50 [1, 4] read?
**A.** 6.57

**Q.** What about the pIC50 [2, 5] of the same compound?
**A.** < 5.00

**Q.** And the pIC50 [3, 6]?
**A.** 5.15

**Q.** How did the pIC50 [1, 4] turn out when `COCCN1CCC(C(=O)NO)(S(=O)(=O)c2ccc(N3CCC(C(=O)N4CCc5ccccc54)CC3)cc2)CC1` [Example 246, 4-[[4-[4-[(2,3-Dihydro-1H-indol-1-yl)carbonyl]-1-piperidinyl]-phenyl]sulfonyl]-N-hydroxy-1-(2-methoxyethyl)-4-piperidinecarboxamide, Monohydrate] was run?
**A.** 7.49

**Q.** What about the pIC50 [2, 5] of the same compound?
**A.** < 5.00

**Q.** And the pIC50 [3, 6]?
**A.** 5.57

**Q.** Which results are given for `CN(C)CCN(C)CCCCC(=O)N1CCC(C(=O)NO)(S(=O)(=O)c2ccc(Oc3ccc(C(F)(F)F)cc3)cc2)CC1` [Example 338]?
**A.** pIC50 [1, 4]: 8.72; pIC50 [2, 5]: < 5.00; pIC50 [3, 6]: 9.70

**Q.** `CC1CC(C)CN(C(=O)C2CCN(c3ccc(S(=O)(=O)C4(C(=O)NO)CCN(C(=O)CN5CCOCC5)CC4)cc3)CC2)C1` (stereo not drawn) [Example 283] was tested. Which pIC50 [1, 4] did it give?
**A.** 7.86

**Q.** And the pIC50 [2, 5]?
**A.** < 5.00

**Q.** And the pIC50 [3, 6]?
**A.** < 5.00

**Q.** `CCOCC1CCCN(c2ccc(S(=O)(=O)C3(C(=O)NO)CCOCC3)cc2)C1` (stereo not drawn) [Example 563] was tested. Which pIC50 [1, 4] did it give?
**A.** 7.15

**Q.** And the pIC50 [2, 5]?
**A.** < 5.00

**Q.** What about the pIC50 [3, 6] of the same compound?
**A.** 6.63

**Q.** How did the pIC50 [1, 4] turn out when `O=C(c1ccc2c(c1)OCO2)C1CCN(c2ccc(S(=O)(=O)C3(C(=O)NO)CCOCC3)cc2)CC1` [Example 796] was run?
**A.** 8.24

**Q.** What about the pIC50 [2, 5] of the same compound?
**A.** < 5.00

**Q.** And the pIC50 [3, 6]?
**A.** 6.89

**Q.** How did the pIC50 [1, 4] turn out when `CN(C)c1ccc(C(=O)C2CCN(c3ccc(S(=O)(=O)C4(C(=O)NO)CCOCC4)cc3)CC2)cc1` [Example 784] was run?
**A.** 8.22

**Q.** And the pIC50 [2, 5]?
**A.** < 5.00

**Q.** What about the pIC50 [3, 6] of the same compound?
**A.** 5.35

**Q.** Which results are given for `CC1CC(C)CN(C(=O)C2CCN(c3ccc(S(=O)(=O)C4(C(=O)NO)CCN(C(=O)CNCCO)CC4)cc3)CC2)C1` (stereo not drawn) [Example 286]?
**A.** pIC50 [1, 4]: 7.22; pIC50 [2, 5]: < 5.00; pIC50 [3, 6]: < 5.00

**Q.** With `O=C(NO)C1(S(=O)(=O)c2ccc(N3CCC(Oc4ccccc4C(F)(F)F)CC3)cc2)CCOCC1` [Example 568] as the compound, how does the pIC50 [1, 4] read?
**A.** 6.92

**Q.** What about the pIC50 [2, 5] of the same compound?
**A.** < 5.00

**Q.** And the pIC50 [3, 6]?
**A.** 5.34

**Q.** With `O=C(NO)C1(S(=O)(=O)c2ccc(N3CCCCC3CCOCc3ccc(Cl)c(Cl)c3)cc2)CCOCC1` (stereo not drawn) [Example 513] as the compound, how does the pIC50 [1, 4] read?
**A.** 5.11

**Q.** And the pIC50 [2, 5]?
**A.** < 5.00

**Q.** And the pIC50 [3, 6]?
**A.** < 5.00

**Q.** `O=C(c1ccccc1)C1CCN(c2ccc(S(=O)(=O)C3(C(=O)NO)CCOCC3)cc2)CC1` [Example 656] was tested. Which pIC50 [1, 4] did it give?
**A.** 8.51

**Q.** What about the pIC50 [2, 5] of the same compound?
**A.** < 5.00

**Q.** And the pIC50 [3, 6]?
**A.** 6.92

**Q.** How did the pIC50 [1] turn out when `O=C(C1CCN(c2ccc(S(=O)(=O)C3(C(=O)NO)CCOCC3)cc2)CC1)N1CCN(c2ncc(C(F)(F)F)cc2Cl)CC1` [Example 41] was run?
**A.** 7.15

**Q.** What about the pIC50 [2] of the same compound?
**A.** < 5.00

**Q.** What about the pIC50 [3] of the same compound?
**A.** 5.27

**Q.** With `C=CCC(=O)C1CCN(c2ccc(S(=O)(=O)C3(C(=O)NO)CCOCC3)cc2)CC1` [Example 798] as the compound, how does the pIC50 [1, 4] read?
**A.** 7.70

**Q.** And the pIC50 [2, 5]?
**A.** < 5.00

**Q.** What about the pIC50 [3, 6] of the same compound?
**A.** 6.68

**Q.** How did the pIC50 [1, 4] turn out when `O=C(NCCc1ccccc1)OC1CCN(c2ccc(S(=O)(=O)C3(C(=O)NO)CCOCC3)cc2)CC1` [Example 516] was run?
**A.** 7.83

**Q.** What about the pIC50 [2, 5] of the same compound?
**A.** < 5.00

**Q.** What about the pIC50 [3, 6] of the same compound?
**A.** 6.52

**Q.** What does the source list for `COc1ccc(COC2CCC(Oc3ccc(S(=O)(=O)C4(C(=O)NO)CCOCC4)cc3)C2)cc1` (stereo not drawn) [Example 648]?
**A.** pIC50 [1, 4]: 7.59; pIC50 [2, 5]: < 5.00; pIC50 [3, 6]: 6.96

**Q.** How did the pIC50 [1, 4] turn out when `O=C(Nc1cccc(C(F)(F)F)c1)OC1CCN(c2ccc(S(=O)(=O)C3(C(=O)NO)CCOCC3)cc2)CC1` [Example 188, N-Hydroxy-4[[[4-[(3-trifluoromethyl)phenylcarbamoxy]piperidyl]phenyl]sulfonyl]-1-tetrahydropyrancarboxamide] was run?
**A.** 8.15

**Q.** And the pIC50 [2, 5]?
**A.** < 5.00

**Q.** What about the pIC50 [3, 6] of the same compound?
**A.** 6.63

**Q.** `COCCN1CCC(C(=O)NO)(S(=O)(=O)c2ccc(N3CCC(C(=O)Nc4ccccc4)CC3)cc2)CC1` [Example 236, N-Hydroxy-1-(2-methoxyethyl)-4-[[4-[4-[(phenylamino)carbonyl]-1-piperidinyl]phenyl]-sulfonyl]-4-piperidinecarboxamide Monohydrochloride)] was tested. Which IC50 ([1]; MMP-13 IC50 (nM), recombinant human MMP-13, MCA peptide substrate 4 μM, pH 7.5, room temperature) did it give?
**A.** 9 nM

**Q.** What about the pIC50 [2, 5] of the same compound?
**A.** < 5.00

**Q.** What about the IC50 ([3]; MMP-2 IC50 (nM)) of the same compound?
**A.** 400 nM
